What was measured:
ALDH3A1 = target: T1, ALDH3A1 (Homo sapiens, UniProt P30838); experiment: ALDH enzymatic assay (spectrophotometric), recombinant ALDH3A1; format: biochemical
T1 sequence (P30838 1-453): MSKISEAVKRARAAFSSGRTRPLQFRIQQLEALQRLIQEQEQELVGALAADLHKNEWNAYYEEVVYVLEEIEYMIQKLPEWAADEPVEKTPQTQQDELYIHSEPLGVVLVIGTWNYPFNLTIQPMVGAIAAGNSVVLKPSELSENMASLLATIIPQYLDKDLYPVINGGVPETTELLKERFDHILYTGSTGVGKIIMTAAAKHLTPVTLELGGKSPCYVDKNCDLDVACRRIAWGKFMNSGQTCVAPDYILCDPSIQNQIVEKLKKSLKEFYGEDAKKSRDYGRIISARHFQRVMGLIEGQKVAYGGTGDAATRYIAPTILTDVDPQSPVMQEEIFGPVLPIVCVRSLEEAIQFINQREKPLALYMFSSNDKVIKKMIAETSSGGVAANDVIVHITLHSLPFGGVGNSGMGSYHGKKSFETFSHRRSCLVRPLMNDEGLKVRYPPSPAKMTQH
Source text: To determine if ALDH3A1 activation is sufficient to protect salivary glands from radiation-induced dysfunction, a library of 135 traditional Chinese medicine extracts donated from Sun Ten Pharmaceutical Co., Taiwan, was screened using a spectroscopic enzyme activity assay and purified recombinant ALDH3A1. […] We then conducted high performance liquid chromatography (HPLC) fractionation of the extracts and nuclear magnetic resonance (NMR) characterization of the fractions. Based on the NMR fingerprint, we identified known constituents of similar fingerprints and purchased the commercially available compounds to test using the enzyme activity assay.
(§1) ALDH enzymatic assay: ALDH1A1, ALDH1A2, 2, 3A1, 3A2, 4A1, 5A1, 7A1 were measured as previously described using 5 μg/ml of recombinant protein (Chen, C. H., Cruz, L. A., and Mochly-Rosen, D. (2015) Pharmacological recruitment of aldehyde dehydrogenase 3A1 (ALDH3A1) to assist ALDH2 in acetaldehyde and ethanol metabolism in vivo. Proceedings of the National Academy of Sciences of the United States of America 112, 3074-3079). […] Assays were conducted in 50 mM NaPPi buffer (pH 7.4) in the presence of 2.5 mM NAD^+ and 10 mM substrate and measured in triplicate at 25° C. Dose response curve fits and EC50's were calculated using GraphPad Prism 7 software.
Activity measured in presence of compound concentrations from 6 nM to 400 μM.

ALDH1A1 = target: T2, ALDH1A1 (Homo sapiens, UniProt P00352); experiment: ALDH fluorescence-coupled enzymatic assay, all-trans-retinal substrate, ALDH1A1; format: biochemical
T2 sequence (P00352 1-501): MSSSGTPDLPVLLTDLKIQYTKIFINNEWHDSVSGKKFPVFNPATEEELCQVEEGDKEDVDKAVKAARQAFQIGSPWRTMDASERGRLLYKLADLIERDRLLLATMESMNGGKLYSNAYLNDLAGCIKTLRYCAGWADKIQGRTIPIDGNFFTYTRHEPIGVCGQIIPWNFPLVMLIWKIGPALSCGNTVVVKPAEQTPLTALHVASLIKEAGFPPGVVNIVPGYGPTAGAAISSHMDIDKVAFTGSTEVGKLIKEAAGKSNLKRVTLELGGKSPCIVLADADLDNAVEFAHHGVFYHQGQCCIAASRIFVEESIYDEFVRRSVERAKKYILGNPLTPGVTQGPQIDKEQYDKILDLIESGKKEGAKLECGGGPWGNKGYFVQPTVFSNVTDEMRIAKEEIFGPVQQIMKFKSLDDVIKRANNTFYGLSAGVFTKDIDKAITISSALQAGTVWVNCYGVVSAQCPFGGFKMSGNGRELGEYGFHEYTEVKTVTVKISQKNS
Protocol: Assay conditions were modified from the original enzyme assay protocol above using 50 mM NaPPi buffer (pH 7.4), 2.5 mM NAD^+, 10 mM acetaldehyde or all-trans-retinal substrate with the addition of 1 U/mL diaphorase and 0.1 mM resazurin for the secondary reaction. Measurements were collected in triplicate at 25° C.

ALDH5A1 = target: T3, ALDH5A1 (Homo sapiens, UniProt P51649); experiment: ALDH enzymatic assay, recombinant ALDH5A1; format: biochemical; conditions: 5 μg/ml recombinant enzyme, 10 mM acetaldehyde, 20 μM Alda-341
T3 sequence (P51649 48-535): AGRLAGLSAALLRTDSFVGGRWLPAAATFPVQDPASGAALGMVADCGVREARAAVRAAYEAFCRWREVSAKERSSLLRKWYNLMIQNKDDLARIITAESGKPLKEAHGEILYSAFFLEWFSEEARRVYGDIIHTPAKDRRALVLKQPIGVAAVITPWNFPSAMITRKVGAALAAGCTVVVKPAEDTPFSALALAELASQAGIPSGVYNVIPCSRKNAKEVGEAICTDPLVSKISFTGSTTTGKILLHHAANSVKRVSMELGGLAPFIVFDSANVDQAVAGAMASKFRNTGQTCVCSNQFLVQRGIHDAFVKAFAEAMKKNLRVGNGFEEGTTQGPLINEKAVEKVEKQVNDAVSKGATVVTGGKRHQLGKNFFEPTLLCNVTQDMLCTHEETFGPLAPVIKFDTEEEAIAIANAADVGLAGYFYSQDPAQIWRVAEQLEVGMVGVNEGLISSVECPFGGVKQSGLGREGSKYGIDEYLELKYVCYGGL
Protocol: as §1

[1] = C57BL/6 female mice irradiated with 30 Gy, treated 8 weeks with Alda-341
Protocol: Pathology: A complete necropsy was performed by a certified veterinarian. Tissues from brain, heart, kidney, liver, esophagus, thymus, trachea, thyroid, lung, spleen, pancreas, trachea, stomach, pancreas, intestines, bladder, uterus and ovary were fixed on slides and scored for inflammation, necrosis, and apoptosis from a scale of 0 to 5. A complete blood count and blood chemistry panel was assessed by Stanford's Veterinary Services Center.

[2] = human, 2 g/d oral Alda-341 for 2 weeks
Source text: Saliva and plasma samples were collected at baseline, and at the time of surgery, and normal salivary gland tissue was collected at the time of surgery.
Patients were required to be between 18 to 85 years of age, have elected to undergo surgery for recent diagnosis of parotid or submandibular gland tumor, and qualified for anesthesia. […] Patients were excluded from study participation if nursing or pregnant or diagnosed with kidney disease, end stage liver disease, metastatic cancer, or any unstable medical condition. […] Blood and saliva samples were collected at baseline and on the day of surgery. Normal and tumor salivary gland tissue were collected during surgery. Drug levels in tissue, plasma, and saliva were measured by the GCMS method described herein.
An aliquot of the heptane layer was used for analysis. […] Samples volumes of 1 μL splitless were injected with an inlet temperature of 220° C. The flow rate was constant at 1 mL/min. An Agilent DB-5MS UI column was used (30 m length, 0.250 mm inner diameter, 0.25 micron film). […] Calibration curves were linear from 4 to 8000 ng/mL.

With C=C(C)[C@H]1CC=C(C)CC1 [Alda-341, D-limonene] as the compound, how does the “substrate specificity of increase in ALDH3A1 catalytic activity” value (ALDH3A1; 10 mM acetaldehyde, propionaldehyde, benzaldehyde, cinnamaldehyde, decanal, heptaldehyde or 200 μM 4-hydroxynonenal, 100 μM compound) read?
Its value is “only increase the catalytic activity of ALDH3A1 towards small aldehydes like acetaldehyde and propionaldehyde but not aromatic or long-chain aldehydes”.

What about the Amax (ALDH3A1; normalized to baseline activity, GraphPad Prism curve fit) of the same compound?
The Amax was about 4.6.

What about the EC50 (ALDH3A1; recombinant ALDH3A1, spectrophotometric enzyme activity assay, concentrations 6 nM to 400 μM) of the same compound?
The EC50 was about 14 µM.

And the “catalytic activity of all trans-retinal in ALDH1A1” value (ALDH1A1)?
Its value is “did not increase”.

And the “catalytic activity of ALDH5A1” value (ALDH5A1)?
The value was “did not increase”.

What about the “complete blood count and blood chemistry panel” value [1] of the same compound?
Its value is “normal complete blood count and blood chemistry panel”.

What about the “average plasma drug levels after treatment” value [2] of the same compound?
The value was 144.3 ng/mL.
